According to publication PMC6662706, “Short amylin receptor antagonist peptides improve memory deficits in Alzheimer’s disease mouse model” (Scientific Reports, 2019):
No end group written: not given here.

What was measured:
HEK-WT cells = experiment: Flow cytometry cell binding and uptake of Cy5.5 labeled peptides, HEK-WT cells; format: cell-based, human; details: Cy5.5 labeled peptides 5 µM, 1 h, 37 °C
Description: Next, we labeled R5, R14 peptides with Cy5.5 to examine their in vitro binding efficacy and specificity compared with AC253 in HEK-AMY3 cells using flow cytometry and fluorescence microscopy (Fig. 1A,C).
For flow cytometry studies, HEK-AMY3 cells were used to determine cell binding and uptake and binding of Cy5.5 labeled AC253, and R5, R14, R11 fragments. Cell were plated at a density of 1.5 × 10^5 cells/well and cultured overnight in 12-well plates at 37 °C. Peptides (5 µM) were added and incubated for 1 h at 37 °C in serum free media. The culture media was then discarded, and cell monolayers were washed with PBS containing 2 mM EDTA and 0.5% BSA adjusted to pH 7.4 at 37°C, then cells were washed again with cold buffer and incubated with 0.25% trypsin to remove cell surface–associated fluorophores. Cells were then dispersed in FACS solution (10% FBS in PBS), and analyzed using a FACSCanto II flow cytometer (BD Biosciences, USA) selecting a detection window between 720 and 840 nm, and fluorescence histograms and dot plots were generated using FLOWJO software (Tree Star, Inc, USA). At least 10,000 gated events per sample were analyzed to develop the histogram. HEK-WT cells was used as negative control.

[1] = In vitro proteolytic stability in human serum; format: in vitro ADME; details: 37°C, intact peptide at different time points estimated by RP-HPLC
Description: Subsequently, we investigated the proteolytic stability of R5, and R14 compared to AC253. […] By assessing the main degradation fragments for both peptides using MALDI-TOF, we found both peptides to be cleaved at the basic arginine amino acids.
Supplementary Figure S2: The comparison of bio-distribution for the fragments and their parent peptide. (A) Ex vivo fluorescence showing bio-distribution images for Cy5.5-R5, R14, AC253 in different organs at after a 2 h of a single ip injection of the peptides (0.1 mmol in 200µl saline). (B) Quantification of peptides fluorescence in each organ (n=3). (C) In vitro stability of R5, R14, and AC253 peptides in human serum compared with AC253 at 37°C. The amount of intact peptide in human serum at different time points was estimated using RP-HPLC.

[2] = Brain uptake of R5 compared with davalintide, wild-type and het CTR mice; format: in vivo, mouse; details: mouse, not told, ip
Description: For peptide R5 brain uptake in comparison to Davlintide, wild-type littermate (C57BL/6 background) mice and heterozygous CTR knockdown mice (50% CTR expression level compared to wild type control mice and presumably with 50% AMY receptor expression level) was used (n=5 in each group). Mouse brains were extracted after 2h from a single injection and fluorescence in brains was quantified as mentioned above.
Supplementary Figure S3: The comparison of brain permeability for R5 and Davalintide.

5XFAD mice = experiment: Brain amyloid pathology and neuroinflammation markers in 5XFAD mice (thioflavin-S, Western blot); format: in vivo, mouse
Text: We initiated treatment of 5XFAD and wild-type control mice at 6 month age at a time point when they had also developed very significant amyloid burden in addition to the spatial memory deficits noted above (Fig. 4A). […] There was significant reduction in the amyloid plaque numbers, and the overall amyloid burden (as judged by the area covered by plaques) in these brain regions in the peptide treated mice (Fig. 5B, p < 0.05). […] (Fig. 5C,D, p < 0.05).
After completion of treatments, the mouse brains were harvested and the right hemisphere was frozen for biochemical analysis (Western blot, ELISA), and the left hemisphere was fixed with PAF for further processed. The thicker brain sections were stained thioflavin-S for detecting Aβ plaques.
After completion of treatments, all mice were sacrificed with an overdose of isoflourane anesthetic, perfused transcardially with saline using a pump, and the brains were harvested. The right hemisphere was frozen for biochemical analysis (Western blot, ELISA), and the left hemisphere was fixed with PAF for 24 h at 4 C. These brain tissues were further processed with modified CLARITY protocol (http://www.chunglabresources.com/clarity/). Briefly, the fixed brain tissue was transferred to hydrogel monomer solution (4% acrylamide in PBS) at 4 C for 24 h, and subsequently to a 24-well plate, merged in fresh hydrogel solution and the tissue brought to 37 C till formation of the gel. Thick sagittal slices (400 μm) were cut on an HR2 Slicer (Sigman Electronic, Germany). The thicker brain sections were cleared with 8% SDS in PBS for 24 h, followed by 0.3% Triton X-100 in PBS for 24 h. Blocking the section in 2%BSA-10% goat serum for 4h. A modified thioflavin-S staining was used for detecting Aβ plaques. […] Images were visualized using fluorescence microscopy (Axioplan-2, Carl Zeiss Ltd). Amyloid plaque size and area were analyzed with Image J software.
Frozen brain tissues or cultured cells were homogenized in cold RIPA buffer with protease inhibitors and proteins were quantified with BCA assay (BioRad, Mississauga, ON, Canada). […]

[3] = Observation for off-target effects and body weight during 5 weeks of treatment; format: in vivo, mouse; details: mice
Description: The determination of injection amount of R5 (200 µg/kg) was based on achieving equimolar concentrations as the full length peptide, cAC253[21] and prior studies that used pramlintide injections[22],[23]. The normal mouse circulated endogenous amylin level is 0.7 ± 0.4 pmol/L in plasma[32] and based upon our in vitro data (Fig. 1E) unlikely to perturb the function of peptides in vivo at these concentrations.

[4] = 5 weeks ip, normalized to β-actin, n = 6, p < 0.05

Substance	binding and uptake in HEK-WT cells compared to HEK-AMY3 cells (HEK-WT cells)	half-life [1] [min]	brain permeability, R5 versus davalintide [2]	amyloid proteins (Aβ, 6E10) in cortical tissue, Western blot, versus normal saline (5XFAD mice; [4])	neuroinflammation markers CD68, NLPR3 and caspase-1, Western blot (5XFAD mice; [4])	amyloid pathology in the cortex, hippocampus and thalamus versus saline (5XFAD mice; ip three times a week for 5 weeks, thioflavin-S)	body weight ([3]; 5 weeks of ip treatment)	signs of off-target effects (sedation, gait, feeding or drinking, weight loss, hair loss, grooming) ([3]; 5 weeks of ip treatment three times a week)
LGRLSQELHRLQTYPRTNTGSNTY-NH2 (C-terminus assumed) [AC253, reference compound]	reduced binding and uptake	–	–	–	–	–	–	–
SQELHRLQTYPR-NH2 [R5]	–	60	greater brain permeability	significantly reduced	significantly attenuated	significantly reduced amyloid pathology	no significant changes in body weight	None of the mice receiving cAC253 or R5 showed any signs of off-target effects
